Reference: US8784824B2, “Compositions and methods for treatment of angiogenesis in pathological lesions” (Philogen S.p.A., priority 2000, dated 2014)

How the values were obtained:
[1] = system: C51 murine carcinoma cell line; assay: Crystal violet cytotoxicity assay; type: cell-based; details: Mus musculus; C51 cells; crystal violet staining (FIG. 9); read-out: 50% inhibitory concentrations towards C51 cells
Method: C51 murine adenocarcinoma cells were seeded in 24-well plates at a density between […] per well. The plates were incubated overnight at 37° C. in humidified, 5% CO2 atmosphere to ensure the growth of the monolayer. The medium was then removed and different concentrations of doxorubicin was added. Relative cell numbers in treated and control plates were determined by crystal violet staining. Quantification is possible by solubilising the absorbed dye in ethanol 70% and determining optical density at 590 nm where absorbance is directly proportional to cell number. Relative cell number can be expressed as T/C=T−C0/C−C0×100 [T=absorbance of treated cultures, C=absorbance of control cultures, and C0=absorbance of cultures at the start of incubation (t=0)]. The results of this study are depicted in FIG. 9.

[2] = intravenously injected; cited from earlier work
[3] = biological target: recombinant human fibronectin fragment 7B89 (human) (UniProt P02751); assay: 125I-labelled protein on a 7B89/Sepharose column
[4] = biological target: T1, ED-B domain of fibronectin (Homo sapiens, UniProt P02751); assay: Binding of L19-IFN-γ fusion proteins to ED-B (ELISA, BIAcore)
[5] = system: tumor cells; assay: Block of tumor cell proliferation by L19-IFN-γ fusion proteins; type: cell-based; details: typical IFN-γ-dependent fashion
[6] = biological target: T1, ED-B domain of fibronectin; assay: Antigen binding assays of scFv(L19)-TF (ELISA, BIAcore, antigen column)
Method: The immunoreactivity of the scFv-TF fusion protein was analyzed by ELISA immunoassay, by BIAcore and by affinity chromatography on antigen column, as described (Neri et al., 1996; D. Neri et al. (1997) Nature Biotechnology, 15, 1271-1275.; Tarli et al., 1999).

[7] = system: C51 murine carcinoma; assay: In vivo treatment with scFv-TF fusion protein, C51 tumors; set-up: species or system mouse
Method: (§1) Tumor bearing mice were obtained by subcutaneous injection of 10^6 of FE8 rat fibroblast, C51 colon carcinoma or F9 teratocarcinoma cells (Tarli et al., 1999). The cells were allowed to grow until the tumoral volume could be measured by a slide-calliper.
(§2) Mice with tumors of volume ca 200-300 mm^3 were injected with 20 ug scFv-TF fusion protein corresponding to 10 ug TF in 200 ul saline. The injection was repeated after 48 and 96 hours. Mice were monitored by tumor volume, weight and appearance including photographic documentation.
(§3) Mice with tumors of volume ca 1500 mm^3 were injected with a single dose of with 20 ug scFv-TF fusion protein corresponding to 10 ug TF in 200 ul saline. The injection was not repeated. Mice were monitored by tumor volume, weight and appearance including photographic documentation.

[8] = system: FXa; assay: Enzymatic activity of TF moiety, Spectrozyme FXa assay; type: biochemical; details: method of Ruf et al
Method: The enzymatic activity of the scFv-TF fusion protein was analyzed using the Spectrozyme FXa assay (American Diagnostica, Pfungstadt, Germany) as described by Ruf et al (1991).

[9] = system: FE8 tumors (ras-transformed rat fibroblasts); assay: In vivo treatment with scFv-TF fusion protein, FE8 tumors; set-up: species or system mouse; details: large FE8 tumors; one injection of 20 μg (FIG. 7)
Method: as §1, §3

[10] = system: subcutaneously implanted F9 murine teratocarcinoma; assay: Biodistribution of radioiodinated scFv(L19)-TF; type: in vivo, mouse; details: injected intravenously, quantitative biodistribution (FIG. 3)
Method: The in vivo targeting performance was analysed by biodistribution analysis as described in Tarli et al. (1999). Briefly, purified scFv(L19)-TF fusion protein was radioiodinated and injected into nude mice with subcutaneously implanted F9 murine teratocarcinoma. Mice were sacrificed at 24 hours after injection. The organs were weighed and the radioactivity counted. Targeting results of representative organs are expressed as percent of the injected dose per gram of tissue (% ID/g).

[11] = system: F9 murine teratocarcinoma, C51 murine carcinoma or FE8 tumors; assay: Tumor infarction after scFv-TF injection in tumor bearing mice; type: in vivo, mouse; details: few hours after injection
Method: The antitumor activity of scFv(L19)-TF and scFv(D1.3)-TF was tested in mice bearing the F9 murine teratocarcinoma, the C51 murine carcinoma or FE8 tumors (derived from subcutaneously implanted ras-transformed rat fibroblasts). Experiments were performed both in mice bearing small tumors and in mice bearing very large tumors.
as §1

[12] = system: F9 murine teratocarcinoma; assay: In vivo treatment with scFv-TF fusion protein, F9 tumors; set-up: species or system mouse; details: small F9 tumors; three injections of 20 μg (FIG. 4)
Method: as §1, §2

T1 sequence (P02751 1271-1359 limits assumed): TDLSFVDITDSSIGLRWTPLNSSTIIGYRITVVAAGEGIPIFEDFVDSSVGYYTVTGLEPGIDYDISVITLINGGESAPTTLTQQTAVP
Sequence of recombinant human fibronectin fragment 7B89 (human) (P02751 1173-1537 limits assumed): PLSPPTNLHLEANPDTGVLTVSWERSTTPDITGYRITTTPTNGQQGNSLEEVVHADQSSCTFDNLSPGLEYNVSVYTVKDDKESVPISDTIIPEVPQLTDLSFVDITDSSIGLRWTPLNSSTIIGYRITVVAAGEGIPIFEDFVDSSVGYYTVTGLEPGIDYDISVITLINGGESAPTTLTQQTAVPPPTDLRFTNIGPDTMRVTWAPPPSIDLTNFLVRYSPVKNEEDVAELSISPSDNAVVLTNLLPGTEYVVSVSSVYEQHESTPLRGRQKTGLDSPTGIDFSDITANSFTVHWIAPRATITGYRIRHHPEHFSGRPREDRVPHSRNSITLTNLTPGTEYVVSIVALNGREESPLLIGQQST

COc1cccc2c1C(=O)c1c(O)c3c(c(O)c1C2=O)C[C@@](O)(C(=O)CO)C[C@@H]3O[C@H]1C[C@H](N)[C@H](O)[C@H](C)O1 [doxorubicin, Doxorubicin]
IC50 [1]: ~100 nM
maximal tolerated dose [2]: 8 mg/kg

L19-IL2 fusion protein (from UniProt P60568 21-153)
immunoreactive fraction [3]: > 90%

scFv(L19)-(IFN-γ)2: IFN-γ homodimer (two IFN-γ joined by a polypeptide linker) fused at the C-terminal extremity of scFv(L19)
binding to the ED-B domain of fibronectin [4]: strong binding
block of proliferation of tumor cells [5]: block the proliferation of tumor cells

scFv(L19)-IFN-γ: IFN-γ monomer fused at the C-terminal extremity of scFv(L19)
binding to the ED-B domain of fibronectin [4]: bind with high-affinity
block of proliferation of tumor cells [5]: block the proliferation of tumor cells

scFv(L19)-TF: scFv(L19) specific for ED-B domain of fibronectin genetically fused to truncated tissue factor
activity of the antibody moiety [6]: active
antitumor effect on tumor growth ([7]; large C51 tumors, one injection of 20 μg (FIG. 6)): stopped tumor growth
reduction of growth rate ([7]; small C51 tumors, three injections of 20 μg (FIG. 5)): approx. 50%
activity of the TF moiety [8]: active
antitumor effect on tumor growth [9]: stopped tumor growth
ability to target solid tumors [10]: target solid tumors
tumor infarction [11]: rapid and extensive tumor infarction
reduction of growth rate [12]: approx. 50%
